13 molecules from US6972297B2, “2-Hydroxy-mutilin carbamate derivatives for antibacterial use” (SmithKline Beecham p.l.c., priority 2000, dated 2005) can be followed below.

In data set [1] the test system is Staphylococcus aureus Oxford. Put plainly: conventional MIC assay, Staphylococcus aureus Oxford. Format: cell-based. The method, then:
(§1) Compounds of the present invention were assessed for anti-bacterial activity in a conventional MIC assay against a range of pathogenic organisms.

The test system of data set [2] is Streptococcus pneumoniae 1629. As to the kind of experiment: conventional MIC assay, Streptococcus pneumoniae 1629. Format: cell-based. The method, then:
as §1

The subject of data set [3] is Moraxella catarrhalis Ravasio. As to the kind of experiment: conventional MIC assay, Moraxella catarrhalis Ravasio. Format: cell-based. The method, then: as §1
Data set [4] has as its system Haemophilius influenzae Q1. As to the kind of experiment: conventional MIC assay, Haemophilius influenzae Q1. In kind it is cell-based. How it is done: as §1
Data set [5] can be described thus: intrinsic clearance in human liver microsome preparations. In kind it is in vitro ADME. The conditions noted are these: in the presence of human liver microsomes; R1=2-amino-4-pyridyl, R2=vinyl. In general terms: Microsomes from liver hold many membrane-bound enzymes, among them those of drug oxidation.

Structures are written as SMILES.

For `C=C[C@]1(C)C[C@@H](OC(=O)NC(=O)c2ccc(N)nc2)[C@]2(C)C(C)CC[C@]3(C[C@H](O)C(=O)C32)[C@@H](C)[C@@H]1O` (stereo partly shown) [Example 1], the MIC in data set [1], in data set [2], in data set [3] and in data set [4] was not above 4 µg/mL in each case.

Consider `C=C[C@]1(C)C[C@@H](OC(=O)NC(=O)c2ccnc(N)c2)[C@]2(C)C(C)CC[C@]3(C[C@H](O)C(=O)C32)[C@@H](C)[C@@H]1O` (stereo partly shown) [Example 2], for which the “intrinsic clearance (CLi, a measure of rate of metabolism)” value in data set [5] is 6.5 ml/min/g liver.

On to `C=C[C@]1(C)C[C@@H](OC(=O)NC(=O)c2cnc(N)c([N+](=O)[O-])c2)[C@]2(C)C(C)CC[C@]3(C[C@H](O)C(=O)C32)[C@@H](C)[C@@H]1O` (stereo partly drawn) [Example 22, (6-Amino-5-nitronicotinoyl)carbamic Acid 2-(S)-hydroxymutilin 14-ester], for which the MIC in data set [1], in data set [2], in data set [3] and in data set [4] was not above 4 µg/mL in each case.

In the case of `C=C[C@]1(C)C[C@@H](OC(=O)NC(=O)c2cc(OC)nc(N)n2)[C@]2(C)C(C)CC[C@]3(C[C@H](O)C(=O)C32)[C@@H](C)[C@@H]1O` (stereo partly drawn) [Example 23, (2-Amino-6-methoxypyrimidin-4-ylcarbonyl)carbamic Acid 2-(S)-hydroxymutilin 14-ester], the MIC in data set [1], in data set [2], in data set [3] and in data set [4] was not above 4 µg/mL in each case.

As to `C=C[C@]1(C)C[C@@H](OC(=O)NC(=O)c2ccc(N)nn2)[C@]2(C)C(C)CC[C@]3(C[C@H](O)C(=O)C32)[C@@H](C)[C@@H]1O.Cl` (stereo partly drawn) [Example 27, (3-Amino-6-pyridazinylcarbonyl)carbamic Acid 2-(S)-hydroxymutilin 14-ester Hydrochloride], the MIC in data set [1], in data set [2], in data set [3] and in data set [4] was not above 4 µg/mL each time.

Regarding `C=C[C@]1(C)C[C@@H](OC(=O)NC(=O)c2csc(C3CCN(CC(N)=O)CC3)n2)[C@]2(C)C(C)CC[C@]3(C[C@H](O)C(=O)C32)[C@@H](C)[C@@H]1O` (stereo partly drawn) [Example 30, [2-(1-Carboxamidomethylpiperidin-4-yl)thiazole-4-carbonyl]carbamic Acid 2-(S)-hydroxymutilin 14-ester], the MIC in data set [1], in data set [2], in data set [3] and in data set [4] was not above 4 µg/mL each time.

Consider `CC[C@]1(C)C[C@@H](OC(=O)NC(=O)c2cccc(N)n2)[C@]2(C)C(C)CC[C@]3(C[C@H](O)C(=O)C32)[C@@H](C)[C@@H]1O` (stereo partly drawn) [Example 32, (6-aminopyridin-2-ylcarbonyl)carbamic Acid 19,20-dihydro-2-(S)-hydroxymutilin 14-ester], for which the MIC in data set [1], in data set [2], in data set [3] and in data set [4] was not above 4 µg/mL throughout.

Turning to `CC[C@]1(C)CC(OC(=O)NC(=O)c2cnc3[nH]c(=O)cnc3c2)[C@]2(C)C(C)CC[C@]3(C[C@H](O)C(=O)C23)[C@@H](C)[C@@H]1O` (stereo partly drawn) [Example 34, (3-Oxo-3,4-dihydropyrido[2,3-b]pyrazin-7-ylcarbonyl)carbamic Acid 19,20-dihydro-2-(S)-hydroxymutilin 14-ester], the MIC in data set [1], in data set [2], in data set [3] and in data set [4] was not above 4 µg/mL throughout.

In the case of `CC[C@]1(C)CC(OC(=O)NC(=O)c2cnc(N)s2)[C@]2(C)C(C)CC[C@]3(C[C@H](O)C(=O)C23)[C@@H](C)[C@@H]1O` (stereo partly drawn) [Example 35, (2-Aminothiazol-5-ylcarbonyl)carbamic Acid 19,20-dihydro-2-(S)-hydroxymutilin 14-ester], the MIC in data set [1], in data set [2], in data set [3] and in data set [4] was not above 4 µg/mL throughout.

Turning to `CC[C@]1(C)CC(OC(=O)NC(=O)c2cnc(OC)c(N)c2)[C@]2(C)C(C)CC[C@]3(C[C@H](O)C(=O)C23)[C@@H](C)[C@@H]1O` (stereo partly drawn) [Example 36, (5-Amino-6-methoxynicotinoyl)carbamic Acid 19,20-dihydro-2-(S)-hydroxymutilin 14-ester], the MIC in data set [1], in data set [2], in data set [3] and in data set [4] was not above 4 µg/mL throughout.

Turning to `CC[C@]1(C)CC(OC(=O)NC(=O)c2cnc(NC)nc2)[C@]2(C)C(C)CC[C@]3(C[C@H](O)C(=O)C23)[C@@H](C)[C@@H]1O` (stereo partly drawn) [Example 37, (2-Methylaminopyrimidin-5-ylcarbonyl)carbamic Acid 19,20-dihydro-2-(S)-hydroxymutilin 14-ester], the MIC in data set [1], in data set [2], in data set [3] and in data set [4] was not above 4 µg/mL in each case.

Consider `CC[C@]1(C)CC(OC(=O)NC(=O)c2cnc(OC)nc2)[C@]2(C)C(C)CC[C@]3(C[C@H](O)C(=O)C23)[C@@H](C)[C@@H]1O` (stereo partly drawn) [Example 38, (2-Methoxypyrimidin-5-ylcarbonyl)carbamic Acid 19,20-dihydro-2-(S)-hydroxymutilin 14-ester], for which the MIC in data set [1], in data set [2], in data set [3] and in data set [4] was not above 4 µg/mL in each case.

For the molecule `CC[C@]1(C)CC(OC(=O)NC(=O)c2ccc(N)nc2)[C@]2(C)C(C)CC[C@]3(C[C@H](O)C(=O)C23)[C@@H](C)[C@@H]1O` (stereo partly drawn) [Example 39, (6-Aminonicotinoyl)carbamic Acid 19,20-dihydro-2-(S)-hydroxymutilin 14-ester], the MIC in data set [1], in data set [2], in data set [3] and in data set [4] was not above 4 µg/mL each time.
